“Also recorded” adds a separate entry of the source.
Legend:
[1] = molecular target: T1, SOD1^A123F (Homo sapiens, UniProt P00441, A124F); assay: MST binding assay, site-specific mutant SOD1^A123F; details: PBS buffer, mutant 25 nM, PB 30.5 nM to 250 μM, 25 °C
T1 construct: His-tag (cleaved yes); made in house; host or cells: E. coli BL21-DE3
Experimental: (§1) To further validate the binding of PB to SOD1, site-directed mutagenesis was performed for the interacting residues at the binding sites of PB. The point mutations generated on the SOD1 protein are K9F, G10P, L42R, and A123F. The MST assay was carried out on these mutants against PB (Fig 5). The dose-response curve with the highest signal-to-noise ratio, high response amplitude, and lowest error rate was selected for measuring the binding affinity (Kd) value. […] Binding at the electrostatic loop is affected majorly by mutating residues at A123 to phenylalanine and L42 to arginine. […] Taken together, the binding affinities of these mutants confirm the ligand bindings at these sites of SOD1 are specific.
(§2) Fig 5 MST interaction analysis of fluorescently labeled SOD1 mutants against PB. The binding of PB to fluorescently Cys-labeled SOD1- variants is quantified in PBS buffer. The concentration of PB varied from 30.5 nM to 250 μM, while the respective mutants were kept constant at 25 nM. MST experiments were conducted at 20% LED excitation and medium MST power at 25 °C. […] Error bars indicate the standard error of the mean, SEM (n = 3). […] The ligand PB is printed only in the titles of panels a-d, so the mutant names are used as the substance labels.
(§3) Binding studies were performed for SOD1^WT and the ligands using microscale thermophoresis (MST). […]

[2] = molecular target: T2, SOD1^K9F (Homo sapiens, UniProt P00441, K10F); assay: MST binding assay, site-specific mutant SOD1^K9F; details: PBS buffer, mutant 25 nM, PB 30.5 nM to 250 μM, 25 °C
T2 construct: His-tag (cleaved yes); made in house; host or cells: E. coli BL21-DE3
Experimental: as §1, §2, §3

T1 sequence (P00441 whole entry A124F): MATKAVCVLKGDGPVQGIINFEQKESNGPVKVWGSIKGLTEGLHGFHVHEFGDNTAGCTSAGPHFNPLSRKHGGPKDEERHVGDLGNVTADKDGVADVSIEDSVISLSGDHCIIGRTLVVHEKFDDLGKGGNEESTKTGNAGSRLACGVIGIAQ
T2 sequence (P00441 whole entry K10F): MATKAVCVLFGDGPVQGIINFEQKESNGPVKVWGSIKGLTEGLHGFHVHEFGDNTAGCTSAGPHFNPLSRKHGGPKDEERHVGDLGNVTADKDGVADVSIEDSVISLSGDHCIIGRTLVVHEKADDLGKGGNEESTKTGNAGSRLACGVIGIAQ

CCCC[C@H](C)/C=C(C)/C=C/C(=O)O [PB, (S, 2E, 4E)-4,6-dimethyldeca-2,4-dienoic acid]
binding affinity Kd [1]: very weak binding; also recorded: weak-binding | binding affinity Kd [2]: no binding

From PMC10917278, “Structural insights into the modulation Of SOD1 aggregation By a fungal metabolite Phialomustin-B: Therapeutic potential in ALS” (PLOS ONE, 2024)
